Columns and labels:
A549 cells [1] = experiment: Intracellular uptake and release by CLSM in A549 cells; assay type: cell-based, human; conditions: 10 μg/mL DOX equivalents
Protocol: (§1) A549 (cancer cells) and NIH3T3 (normal cells) cells were seeded at a density of 1.0×10^5 cells/well in an 8-well chamber of a Lab-Tek II chamber slide and preincubated for 24 h at 37° C. and 5% CO2. Serum-free DMEM containing free DOX and DOX-NPs at equivalent doses (10 μg/mL) was added to each well, followed by incubation for 30 min, 2 h and 4 h at 37° C. The cells were then rinsed with PBS, and fixed with 4% formaldehyde solution for 10 min. Cover glasses were then placed on glass slides. The cellular uptake and release behavior of DOX-encapsulated SS or thioester NPs were imaged by confocal laser scanning microscopy (CLSM) (Leica, England) at an excitation wavelength of 488 nm for DOX. Since DOX itself is fluorescent, it was used directly to investigate cellular uptake without additional fluorescent labeling in of the nanoparticles.

NIH3T3 cells = experiment: Intracellular uptake and release by CLSM in NIH3T3 cells; assay type: cell-based, Mouse; conditions: 10 μg/mL DOX equivalents, 30 min to 4 h
Protocol: as §1

A549 cells [2] = experiment: MTT cytotoxicity in A549 cells; assay type: cell-based, human; conditions: 24 h
Protocol: (§2) A549 and NIH3T3 cells (7500 cells/well) were seeded on 96-well plates and cultured in 200 μL of DMEM supplemented with 10% FBS, 1% antibiotics, and 1% L-glutamine for 24 h at 37° C. and 5% CO2. After incubation, various concentrations of DOX-encapsulated SS or thioester NPs and free DOX (1-50 μg/mL of DOX equivalents) dissolved in DMEM without supplements were added. After 24 h of incubation, cytotoxicity was determined using 3-[4,5-dimethylthiazol-2-yl]-[…] bromide dye (MTT dye, final concentration of 0.5 mg/mL) uptake at 540 nm on a microplate reader (Tecan group Ltd., Mannedorf, Switzerland).

HeLa cells [3] = experiment: Cellular uptake by CLSM in HeLa cells; assay type: cell-based
Protocol: To observe the cellular uptake, HeLa cells (cancer cells) were seeded at a density of 1.0×10^5 cells/well in an 8-well chamber of a Lab-Tek II chamber slide and preincubated for 24 h at 37° C. and 5% CO2. […] The cells were then rinsed with PBS, stained with 10 μM Draq5 and fixed with 4% formaldehyde solution for 10 min. Cover glasses were then placed on glass slides. The cellular uptake of free DOX and DOX-NPs was imaged by CLSM at an excitation wavelength of 488 nm for DOX. To quantify cellular uptake, HeLa cells (5×10^5 cells/well) in 0.5 mL were grown on a 24-well plate at 37° C. in a humidified atmosphere of 5% CO2 for 24 h. Serum-free DMEM containing free DOX and DOX-NPs at equivalent doses (25 μg/mL) was added to the cells which were subsequently incubated for 2 h. The cells were then washed three times with PBS, harvested by trypsinization and transferred into Fluorescence Activated Cell Sorter (FACS) tubes. All samples were analyzed by flow cytometry (FACSCalibur, BD Biosciences, San Jose, Calif.) to determine cellular internalization. Fluorescence measurements of intracellular DOX were performed in the FL2 channel.

HeLa cells [4] = experiment: MTT cytotoxicity in HeLa cells; assay type: cell-based; conditions: equal DOX concentrations
Protocol: as §2, with “HeLa cells” for “A549 and NIH3T3 cells”, “of the blank nanoparticles (0.2-1 mg/mL), DOX-NPs,” for “of DOX-encapsulated SS or thioester NPs”, “of incubation with free DOX and DOX-NPs, and 48 h with blank nanoparticles,” for “of incubation,”, “Ltd., Männedorf,” for “Ltd., Mannedorf,”

[5] = in vivo; cited from earlier work

| Compound | Location of red DOX fluorescent signal (A549 cells [1]; 30 min) | Location of red DOX fluorescent signal (A549 cells [1]; 2 h and 4 h) | Location of red DOX fluorescent signal (NIH3T3 cells) | Decrease of cell viability (A549 cells [2]; 1-50 μg/mL DOX, dose-dependent) | Cytotoxicity relative to DOX-encapsulated thioester-NPs (A549 cells [2]; all DOX concentrations) | Red DOX fluorescent signal in cells (HeLa cells [3]; 2 h) | Cell morphology (HeLa cells [3]; 4 h) | Red DOX fluorescent signal in cells (HeLa cells [3]; 4 h) | Relative cytotoxicity (HeLa cells [4]) | Biodistribution of free dye [5] |
| --- | --- | --- | --- | --- | --- | --- | --- | --- | --- | --- |
| COc1cccc2c1C(=O)c1c(O)c3c(c(O)c1C2=O)C[C@@](O)(C(=O)CO)C[C@@H]3O[C@H]1C[C@H](N)[C@H](O)[C@H](C)O1 [free DOX, doxorubicin] | entered the cellular nuclei | strong red signal in the cellular nuclei | red signal was observed in the cellular nuclei | 5-82% | significantly higher | red fluorescent signal was observed | cell shrinkage and blebbing | significant increases in the red signal | significantly higher cytotoxicity than DOX-encapsulated NPs |  |
| CCCCCCCCCCCCCCCCCCN1C(=CC=CC=CC=CC2=[N+](CCCCCCCCCCCCCCCCCC)c3ccccc3C2(C)C)C(C)(C)c2ccccc21.[I-] [free hydrophobic DiR, 1,1′-Dioctadecyl-3,3,3′,3′-tetramethylindotricarbocyanine iodide] |  |  |  |  |  |  |  |  |  | accumulated in liver from 1 h to 24 h with negligible tumor accumulation |
